Test results published in PMC4594923, “Food Polyphenols Fail to Cause a Biologically Relevant Reduction of COX-2 Activity” (PLoS ONE, 2015).
Marks after values point to notes of the source that are not given here.

Tests used:
[1] = test system: arachidonic acid (AA) cascade; experiment: kidney tissue oxylipin/PG levels in LPS induced sepsis in mice; conditions: kidney tissue 24 h after LPS treatment, LPS +, mean;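 note: male C57BL/6N mice challenged with LPS, kidney taken 24 h later, oxylipins quantified by LC-MS after solid-phase extraction of tissue homogenate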
[2] = test system: arachidonic acid (AA) cascade; experiment: plasma oxylipin/PG levels in LPS induced sepsis in mice; type: in vivo, C57BL/6N mice;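 note: male C57BL/6N mice given LPS, plasma oxylipins quantified by LC-MS after solid-phase extraction, pretreatment or vehicle given intraperitoneally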
[3] = mice, compound i. p. 100 mg/kg bw 2 h before LPS, 24 h after LPS, vs. LPS group
[4] = plasma 24 h after LPS treatment, LPS +, mean

O=c1cc(-c2ccc(O)cc2)oc2cc(O)cc(O)c12 [Apigenin, apigenin]
1a,1b-dihomo-PGF2α [1]: 1.3 nM
4,5-DiHDPE [1]: 15 nM
4-HDHA [1]: 19 nM
5(6)-EpETrE [1]: 130^* nM
5,6-DiHETrE [1]: 1.6^* nM
5-HEPE [1]: 1.0 nM
5-HETE [1]: 12 nM
5-oxo-ETE [1]: 28 nM
6-keto-PGF1α [1]: 55 nM
7,8-DiHDPE [1]: 1.6 nM
7-HDHA [1]: 3.5 nM
8(9)-EpETrE [1]: 32^† nM
8,9-DiHETrE [1]: 1.6 nM
8-HDHA [1]: 20^† nM
8-HETE [1]: 3.4 nM
8-iPF2a [1]: 1.8 nM
9(10)-EpODE [1]: 13 nM
9(10)-EpOME [1]: 150 nM
9(10)-Epoxystearic acid [1]: 77^* nM
9,10,13-TriHOME [1]: 4.8 nM
9,10-DiHODE [1]: 1.1 nM
9,10-DiHOME [1]: 15^† nM
9,10-Dihydroxystearic acid [1]: 57 nM
9,12,13-TriHOME [1]: 27 nM
9-HETE [1]: 3.5 nM
9-HODE [1]: 150 nM
9-HOTrE [1]: 3.2 nM
9-oxo-ODE [1]: 46 nM
10(11)-EpDPE [1]: 82^‡ nM
10,11-DiHDPE [1]: 1.9 nM
10-HDHA [1]: 3.6 nM
11(12)-EpETE [1]: 4.4 nM
11(12)-EpETrE [1]: 80^† nM
11,12-DiHETrE [1]: 2.1 nM
11-HDHA [1]: 5.7 nM
11-HETE [1]: 16 nM
12(13)-EpODE [1]: 6.0 nM
12(13)-EpOME [1]: 110 nM
12,13-DiHOME [1]: 32^* nM
12-HEPE [1]: 1.1 nM
12-HETE [1]: 10 nM
13(14)-EpDPE [1]: 65^† nM
13,14-DiHDPE [1]: 3.0 nM
13,14-dihydro-15-keto-PGF2α [1]: 2.7 nM
13-HDHA [1]: 6.9 nM
13-HODE [1]: 120 nM
13-HOTrE [1]: 3.3 nM
13-oxo-ODE [1]: 8.5 nM
14(15)-EpETE [1]: 5.4^‡ nM
14(15)-EpETrE [1]: 60^† nM
14,15-DiHETE [1]: 0.7 nM
14,15-DiHETrE [1]: 5.9 nM
14-HDHA [1]: 8.6 nM
15(16)-EpODE [1]: 65 nM
15(S)-HETrE [1]: 4.6 nM
15,16-DiHODE [1]: 13 nM
15-HETE [1]: 22 nM
15-oxo-ETE [1]: 8.2 nM
16(17)-EpDPE [1]: 61^‡ nM
16,17-DiHDPE [1]: 8.2 nM
16-HDHA [1]: 6.3 nM
17(18)-EpETE [1]: 6.2^‡ nM
17,18-DiHETE [1]: 2.7 nM
17-HDHA [1]: 17 nM
18-HEPE [1]: 1.5 nM
19(20)-EpDPE [1]: 92^‡ nM
19,20-DiHDPE [1]: 59 nM
20-HDHA [1]: 18 nM
20-HEPE [1]: 5.2 nM
EKODE [1]: 40 nM
PGD2 [1]: 13 nM
PGE1 [1]: 4.7 nM
PGE2 [1]: 110 nM
PGF1α [1]: 2.8 nM
PGF2α [1]: 33 nM
TXB2 [1]: 2.0 nM
5,6-DiHETE ([1]; < = below LOQ): < 0.25 nM
5-iPF2α ([1]; < = below LOQ): < 1.0 nM
8(9)-EpETE ([1]; < = below LOQ): 2.9^† nM
12,13-DiHODE ([1]; < = below LOQ): < 2.0 nM
13,14-dihydro-15-keto-PGE1 ([1]; < = below LOQ): 0.41 nM
20-HETE ([1]; < = below LOQ): < 2.7 nM
PGD1 ([1]; < = below LOQ): < 0.50 nM
PGF2α ([1]; second listing of PGF2α (r9)): 33 nM
plasma epoxy- and dihydroxy-fatty acid (FA) metabolites of the CYP pathway [2, 3]: reduced
sum of DiHETrEs in plasma [2, 3]: decrease
sum of linoleic acid (LA) derived epoxy-metabolites in plasma [2, 3]: decrease
1a,1b-dihomo-PGF2α concentration in plasma [2, 4]: 0.27 nM
4,5-DiHDPE concentration in plasma [2, 4]: 7.8 nM
4-HDHA concentration in plasma [2, 4]: 1.3 nM
5(6)-EpETrE concentration in plasma [2, 4]: 6.8 nM
5,6-DiHETrE concentration in plasma [2, 4]: 0.62 nM
5-HEPE concentration in plasma [2, 4]: 0.27 nM
5-HETE concentration in plasma [2, 4]: 2.4 nM
5-iPF2α concentration in plasma [2, 4]: < 0.50 nM
5-oxo-ETE concentration in plasma [2, 4]: < 1.0 nM
6-keto-PGF1α concentration in plasma [2, 4]: 2.1 nM
7,8-DiHDPE concentration in plasma [2, 4]: 0.64 nM
7-HDHA concentration in plasma [2, 4]: 0.47 nM
8(9)-EpETrE concentration in plasma [2, 4]: 1.5 nM
8,9-DiHETrE concentration in plasma [2, 4]: 1.4 nM
8-HDHA concentration in plasma [2, 4]: 3.0 nM
8-HETE concentration in plasma [2, 4]: 3.1 nM
8-iPF2a concentration in plasma [2, 4]: 0.19 nM
9(10)-EpODE concentration in plasma [2, 4]: 2.2^* nM
9(10)-EpOME concentration in plasma [2, 4]: 24^* nM
9(10)-Epoxystearic acid concentration in plasma [2, 4]: 18 nM
9,10,13-TriHOME concentration in plasma [2, 4]: 3.3 nM
9,10-DiHODE concentration in plasma [2, 4]: 4.0 nM
9,10-DiHOME concentration in plasma [2, 4]: 34 nM
9,10-Dihydroxystearic acid concentration in plasma [2, 4]: 47^‡ nM
9,12,13-TriHOME concentration in plasma [2, 4]: 38 nM
9-HODE concentration in plasma [2, 4]: 83 nM
9-HOTrE concentration in plasma [2, 4]: 6.1 nM
9-oxo-ODE concentration in plasma [2, 4]: 16 nM
10(11)-EpDPE concentration in plasma [2, 4]: 1.7 nM
10,11-DiHDPE concentration in plasma [2, 4]: 0.58^* nM
10-HDHA concentration in plasma [2, 4]: 3.0 nM
11(12)-EpETrE concentration in plasma [2, 4]: 2.0 nM
11,12-DiHETE concentration in plasma [2, 4]: < 0.13 nM
11,12-DiHETrE concentration in plasma [2, 4]: 1.1^* nM
11-HDHA concentration in plasma [2, 4]: 0.67 nM
11-HETE concentration in plasma [2, 4]: 1.8 nM
12(13)-EpODE concentration in plasma [2, 4]: 1.8 nM
12(13)-EpOME concentration in plasma [2, 4]: 29^* nM
12,13-DiHODE concentration in plasma [2, 4]: 4.5 nM
12,13-DiHOME concentration in plasma [2, 4]: 114 nM
12-HEPE concentration in plasma [2, 4]: 25 nM
12-HETE concentration in plasma [2, 4]: 260 nM
13(14)-EpDPE concentration in plasma [2, 4]: 1.2 nM
13,14-DiHDPE concentration in plasma [2, 4]: 0.58^* nM
13,14-dihydro-15-keto-PGE1 concentration in plasma [2, 4]: 0.14 nM
13,14dihydro-15-keto-PGF2α concentration in plasma [2, 4]: 0.41 nM
13-HDHA concentration in plasma [2, 4]: 0.98 nM
13-HODE concentration in plasma [2, 4]: 110^* nM
13-HOTrE concentration in plasma [2, 4]: 5.7 nM
13-oxo-ODE concentration in plasma [2, 4]: 2.5 nM
14(15)-EpETE concentration in plasma [2, 4]: 0.14^† nM
14(15)-EpETrE concentration in plasma [2, 4]: 1.5^* nM
14,15-DiHETE concentration in plasma [2, 4]: 0.19^† nM
14,15-DiHETrE concentration in plasma [2, 4]: 2.2 nM
14-HDHA concentration in plasma [2, 4]: 71 nM
15(16)-EpODE concentration in plasma [2, 4]: 1.2 nM
15(S)-HETrE concentration in plasma [2, 4]: 0.94 nM
15,16-DiHODE concentration in plasma [2, 4]: 24 nM
15-HETE concentration in plasma [2, 4]: 2.5 nM
15-oxo-ETE concentration in plasma [2, 4]: 0.29 nM
16(17)-EpDPE concentration in plasma [2, 4]: 1.2 nM
16,17-DiHDPE concentration in plasma [2, 4]: 1.2^* nM
16-HDHA concentration in plasma [2, 4]: 1.0 nM
17(18)-EpETE concentration in plasma [2, 4]: 0.68^* nM
17,18-DiHETE concentration in plasma [2, 4]: 1.2^* nM
17-HDHA concentration in plasma [2, 4]: 5.2 nM
18-HEPE concentration in plasma [2, 4]: 0.26 nM
19(20)-EpDPE concentration in plasma [2, 4]: 9.4 nM
19,20-DiHDPE concentration in plasma [2, 4]: 11 nM
20-HDHA concentration in plasma [2, 4]: 2.2 nM
20-HEPE concentration in plasma [2, 4]: 1.7^* nM
20-HETE concentration in plasma [2, 4]: 1.6 nM
EKODE concentration in plasma [2, 4]: 7.0 nM
PGD2 concentration in plasma [2, 4]: < 0.50 nM
PGE2 concentration in plasma [2, 4]: 1.3 nM
PGF1α concentration in plasma [2, 4]: 0.10 nM
PGF2α concentration in plasma [2, 4]: 0.42 nM
TXB2 concentration in plasma [2, 4]: 1.1 nM
